The values that follow come from ChEMBL document CHEMBL1201862, “PubChem BioAssay data set” (2004).

Structures are written as SMILES. Active and inactive are the calls of the source.

One test concerns the target Galanin receptor type 3 (Homo sapiens, UniProt O60755). Put plainly: Fluorescence-based cell-based primary high throughput dose response assay to identify antagonists of the Galanin Receptor 3 (GalR3). It counts as functional.
A further test is described as follows: cells. In kind it is functional, cell-based. Particulars: HEK-CNG.
The target in test [1] is Botulinum neurotoxin type F (Clostridium botulinum, UniProt P30996). Briefly: High-throughput multiplex microsphere dose response for inhibitors of toxin protease, specifically Botulinum neurotoxin light chain F protease, compounds from Cherry Pick 02. It counts as functional. Particulars: read-out: EC50_MICROM.
Sequence of Botulinum neurotoxin type F (P30996 1-436 limits assumed): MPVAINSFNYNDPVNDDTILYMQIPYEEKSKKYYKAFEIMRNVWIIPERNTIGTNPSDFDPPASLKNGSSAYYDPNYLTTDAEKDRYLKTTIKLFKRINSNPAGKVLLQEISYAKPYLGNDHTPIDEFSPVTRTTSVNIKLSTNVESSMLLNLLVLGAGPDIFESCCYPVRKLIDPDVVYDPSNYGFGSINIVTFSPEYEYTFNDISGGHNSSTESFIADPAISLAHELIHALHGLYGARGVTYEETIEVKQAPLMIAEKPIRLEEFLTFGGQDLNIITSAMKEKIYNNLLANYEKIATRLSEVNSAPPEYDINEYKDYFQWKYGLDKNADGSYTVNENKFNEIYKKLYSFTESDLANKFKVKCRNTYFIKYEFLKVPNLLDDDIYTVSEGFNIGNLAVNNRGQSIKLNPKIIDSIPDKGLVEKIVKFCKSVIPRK
A short description of test [2]: inhibitors of LMP1-driven NF-kB reporter, dose response, cell-based, EBV LMP1, luciferase, dry powder, set 2 (AID 624361). In kind it is functional.
Test [3] is described as follows: LMP1-driven NF-kB reporter inhibition, dose response, cell-based, luciferase reporter, luminescence, dry powder, set 2 (AID 624376). In kind it is functional.
A short description of test [4]: miR-122 activators in hepatoma reporter cells, dose response, cell-based, Huh7 psiCHECK-miR122, Renilla luciferase, cherry-picked (AID 651956).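 Note: huh7 hepatoma cells stably carrying a psiCHECK-2 miR-122 sensor plasmid; renilla luciferase signal reporting endogenous miR-122 activity after 48 h compound exposure.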 In kind it is functional.
The target in test [5] is T1, Scavenger receptor class B member 1 (Mus musculus, UniProt Q61009). Briefly: inhibitors of SR-BI-mediated HDL uptake, dose response, cell-based, ldlA[mSR-BI] CHO, DiI fluorescence, dry powder, set 10 (AID 624029). In kind it is functional.
T1 sequence (Q61009 whole entry): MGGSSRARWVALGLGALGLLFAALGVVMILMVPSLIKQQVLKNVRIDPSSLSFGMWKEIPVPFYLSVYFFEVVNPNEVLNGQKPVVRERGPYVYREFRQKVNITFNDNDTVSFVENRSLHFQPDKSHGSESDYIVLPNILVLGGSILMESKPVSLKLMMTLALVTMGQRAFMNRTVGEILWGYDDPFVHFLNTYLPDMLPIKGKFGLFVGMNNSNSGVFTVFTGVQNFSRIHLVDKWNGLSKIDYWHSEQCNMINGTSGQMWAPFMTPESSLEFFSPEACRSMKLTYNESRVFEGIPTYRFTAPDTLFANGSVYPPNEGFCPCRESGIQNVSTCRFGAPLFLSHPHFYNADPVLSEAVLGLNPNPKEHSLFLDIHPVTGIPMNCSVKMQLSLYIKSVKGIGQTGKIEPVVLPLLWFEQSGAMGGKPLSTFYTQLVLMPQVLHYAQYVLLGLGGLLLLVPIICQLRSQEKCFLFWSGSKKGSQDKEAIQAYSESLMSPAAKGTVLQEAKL
Test [6] deals with T1, Scavenger receptor class B member 1. Put plainly: inhibitors of SR-BI dependent HDL uptake, dose response, ldlA[mSR-BI] CHO cells, fluorescence plate reader, dry powder, set 9 (AID 623880). In kind it is functional, cell-based.
Test [7] addresses T2, Small ubiquitin-related modifier 2 (Homo sapiens, UniProt P61956). Put plainly: inhibitors of SUMO2 protein-protein interaction, dose response, selectivity assay for SUMO1 interaction inhibitor project, biochemical, FRET, human SUMO2, uHTS hits (AID 624384). In kind it is functional. Particulars: read-out: IC50_Mean.
In test [8] the target is Induced myeloid leukemia cell differentiation protein Mcl-1 (Homo sapiens, UniProt Q07820). In kind it is functional.
Sequence of Induced myeloid leukemia cell differentiation protein Mcl-1 (Q07820 whole entry): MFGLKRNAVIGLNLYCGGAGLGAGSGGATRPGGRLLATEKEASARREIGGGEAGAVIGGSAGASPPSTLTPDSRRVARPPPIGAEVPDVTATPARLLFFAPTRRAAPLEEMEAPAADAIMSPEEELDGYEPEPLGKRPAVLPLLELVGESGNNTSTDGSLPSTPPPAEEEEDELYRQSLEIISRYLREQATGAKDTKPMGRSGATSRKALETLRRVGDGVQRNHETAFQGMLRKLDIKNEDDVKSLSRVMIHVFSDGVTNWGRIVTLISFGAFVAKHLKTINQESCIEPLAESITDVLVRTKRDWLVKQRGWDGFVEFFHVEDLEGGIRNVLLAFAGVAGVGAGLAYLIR
For test [9], the target named is T3, Small ubiquitin-related modifier 1 (Homo sapiens, UniProt P63165). Put plainly: inhibitors of SUMO1 peptide binding, dose response, biochemical, fluorescence polarization, uHTS hits (AID 624382). In kind it is functional. Conditions: read-out: IC50_Mean.
T3 sequence (P63165 whole entry): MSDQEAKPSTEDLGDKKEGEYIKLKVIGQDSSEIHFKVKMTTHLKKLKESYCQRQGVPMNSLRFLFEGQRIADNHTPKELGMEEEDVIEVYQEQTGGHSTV
Test [10] concerns the target T2, Small ubiquitin-related modifier 2. Briefly: SUMO2–SIM peptide binding inhibitors, dose response, selectivity assay for SUMO1 interaction inhibitor project, biochemical, fluorescence polarization, uHTS hits (AID 624385). In kind it is functional. Conditions: read-out: IC50_Mean.
In test [11] the target is T3, Small ubiquitin-related modifier 1. Briefly: inhibitors of SUMO1 partner interactions, dose response, biochemical, FRET (AID 624383). Conditions: read-out: IC50_Mean. In kind it is functional.
Test [12] has as its target T4, Replicative DNA helicase DnaB (Mycobacterium tuberculosis, UniProt P9WMR3).
T4 sequence (P9WMR3 whole entry): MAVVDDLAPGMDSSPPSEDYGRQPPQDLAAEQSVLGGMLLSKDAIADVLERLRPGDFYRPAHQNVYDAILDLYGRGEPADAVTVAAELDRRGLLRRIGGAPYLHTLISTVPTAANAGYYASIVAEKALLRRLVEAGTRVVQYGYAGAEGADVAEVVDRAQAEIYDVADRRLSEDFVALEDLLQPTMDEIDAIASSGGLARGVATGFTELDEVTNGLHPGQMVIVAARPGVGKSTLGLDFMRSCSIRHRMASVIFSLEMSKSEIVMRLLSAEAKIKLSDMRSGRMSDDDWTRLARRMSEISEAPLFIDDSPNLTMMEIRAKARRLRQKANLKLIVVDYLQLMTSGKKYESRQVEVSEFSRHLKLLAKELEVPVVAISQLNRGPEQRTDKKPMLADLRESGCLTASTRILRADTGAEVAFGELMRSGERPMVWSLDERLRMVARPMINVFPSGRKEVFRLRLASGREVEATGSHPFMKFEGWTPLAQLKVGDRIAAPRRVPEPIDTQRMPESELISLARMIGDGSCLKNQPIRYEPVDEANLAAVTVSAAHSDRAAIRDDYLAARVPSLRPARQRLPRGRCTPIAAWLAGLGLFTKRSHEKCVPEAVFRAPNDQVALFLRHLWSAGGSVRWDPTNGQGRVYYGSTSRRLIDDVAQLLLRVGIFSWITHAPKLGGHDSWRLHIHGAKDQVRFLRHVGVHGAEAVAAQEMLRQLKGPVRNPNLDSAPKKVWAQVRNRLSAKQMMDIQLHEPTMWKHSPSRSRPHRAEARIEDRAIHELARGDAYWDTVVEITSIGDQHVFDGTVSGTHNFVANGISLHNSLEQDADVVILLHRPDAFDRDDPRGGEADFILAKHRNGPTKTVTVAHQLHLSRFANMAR
Briefly: DnaB intein splicing inhibitors, dose response, biochemical, cell-free fluorescence (AID 449749). In kind it is functional.

The target of another test is T5, Protein RecA (Mycobacterium tuberculosis, UniProt P9WHJ3).
T5 sequence (P9WHJ3 whole entry): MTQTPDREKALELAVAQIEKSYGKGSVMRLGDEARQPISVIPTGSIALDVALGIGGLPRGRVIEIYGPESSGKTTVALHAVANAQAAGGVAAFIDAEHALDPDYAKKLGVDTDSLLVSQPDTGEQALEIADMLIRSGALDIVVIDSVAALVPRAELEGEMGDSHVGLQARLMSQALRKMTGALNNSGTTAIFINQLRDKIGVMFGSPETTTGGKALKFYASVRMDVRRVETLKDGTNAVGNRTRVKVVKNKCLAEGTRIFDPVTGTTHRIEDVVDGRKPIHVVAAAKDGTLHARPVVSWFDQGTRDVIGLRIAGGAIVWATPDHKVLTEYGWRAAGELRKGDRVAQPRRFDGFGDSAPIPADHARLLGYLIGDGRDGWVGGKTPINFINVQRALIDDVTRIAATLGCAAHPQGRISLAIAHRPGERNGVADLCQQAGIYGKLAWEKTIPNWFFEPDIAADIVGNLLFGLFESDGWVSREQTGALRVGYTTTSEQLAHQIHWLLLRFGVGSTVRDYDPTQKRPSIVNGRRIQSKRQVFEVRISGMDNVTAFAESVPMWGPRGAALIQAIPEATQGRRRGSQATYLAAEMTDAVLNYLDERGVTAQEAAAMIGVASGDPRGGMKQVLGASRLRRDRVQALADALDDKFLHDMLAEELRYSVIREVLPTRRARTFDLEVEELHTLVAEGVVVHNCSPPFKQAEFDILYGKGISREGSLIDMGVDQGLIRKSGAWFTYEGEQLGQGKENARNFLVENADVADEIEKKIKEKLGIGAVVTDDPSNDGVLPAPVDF
Put plainly: Fluorescence Cell-Free Homogeneous Dose Retest to Identify Inhibitors of RecA-Intein Splicing Activity. [Related pubchem assays (depositor defined):AID2097, AID2223, AID489010, AID492950]. It counts as functional.

T2 sequence (P61956 whole entry): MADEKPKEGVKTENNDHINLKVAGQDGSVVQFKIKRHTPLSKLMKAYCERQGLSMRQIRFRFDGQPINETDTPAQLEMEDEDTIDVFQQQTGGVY
Sequence of Galanin receptor type 3 (O60755 whole entry): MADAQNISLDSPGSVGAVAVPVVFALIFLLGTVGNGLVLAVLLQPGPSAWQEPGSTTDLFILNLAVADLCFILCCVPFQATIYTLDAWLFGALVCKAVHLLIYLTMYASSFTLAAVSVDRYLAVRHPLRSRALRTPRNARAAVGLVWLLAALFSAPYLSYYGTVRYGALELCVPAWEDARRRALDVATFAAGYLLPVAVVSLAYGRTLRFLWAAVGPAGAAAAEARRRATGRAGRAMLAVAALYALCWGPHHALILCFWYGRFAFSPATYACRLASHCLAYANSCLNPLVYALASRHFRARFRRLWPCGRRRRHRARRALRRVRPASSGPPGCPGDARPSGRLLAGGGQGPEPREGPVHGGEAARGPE

With `Cc1onc(-c2ccccc2Cl)c1C(=O)NNC(=O)c1cccc(F)c1`, the IC50 on Galanin receptor type 3 was > 29.9 µM (inactive). Also, the EC50 in “cells” is > 29.9 µM (inactive).

Turning to `COc1ccccc1Cc1c(-c2ccc(F)cc2)nc2cc(C)c(Br)c(C)n12`, the EC50 in test [1] was > 20 µM (inactive).

As a reminder, the AC50 is the concentration giving half of the maximal activity seen. For `COc1ccccc1C#Cc1cnc2c(c1)C(=O)N([C@H](C)CO)C[C@H](C)[C@@H](CN(C)C(=O)c1ccc3c(c1)OCO3)O2`, the values for the AbsAC35 in test [2] and in test [3] were 41.32 µM and 52.21 µM, respectively. Further, the AC50 in test [4] was 13.6 µM (active).

Consider `Cc1noc(C)c1S(=O)(=O)Nc1ccc2c(c1)C(=O)N([C@H](C)CO)C[C@@H](C)[C@H](CN(C)S(=O)(=O)c1ccc(Cl)cc1)O2`, for which the concentration at half-maximal activity (AC50) in test [5] is 0.123 µM (active); in test [6], 0.158 µM (active).

On to `NC1=C2C(=O)c3ccccc3C(=O)C2=C(N)CC1`, for which the IC50 in [7] is > 66 µM (inactive); in [8] it was 1.8 µM (not active); in [9], 7.71 µM (active); in test [10], 10.5 µM (active); in test [11], 52.4 µM (inactive). In addition, in test [12], the AC50 is 11.3 µM (active). For the same compound, the EC50 at Protein RecA was 3.57 µM (active).
